{"source": "patent US20070196902A1", "about": "“Method of detecting AZT resistance in HIV” (University of Pittsburgh, priority 2006, published 2007)", "key": {"[1]": {"tested_on": "wild-type HIV-1LAI passaged in MT-2 cells in increasing concentrations of AZT", "assay": "AZT susceptibility of virus passaged in increasing AZT, selection starting with wild-type HIV-1LAI; single-cycle assay in P4/R5 cells", "format": "cell-based", "details": "for Fold-Resistance: compared to wild-type passaged without AZT", "procedure": "(§1) Selection of AZT-resistant viruses. Resistant virus was selected in two independent experiments by the passage of wild-type HIVLAI or HIVLAI containing the M41L/L210W/T215Y mutations (AZT^R HIVLAI) in MT-2 cells in increasing concentrations of AZT. To initiate each selection experiment, MT-2 cells (1×10^6) were pretreated for two hours with 0.5 μM and 25 μM AZT for wild-type HIVLAI and AZT^R HIVLAI, respectively, before virus was added. Viral replication was monitored by CPE. At +3/4 CPE (3 or 4 syncytia per field at 100× magnified field), cell-free supernatant was harvested and 0.1 ml of supernatant was added to fresh MT-2 cells to initiate a new passage. The concentration of AZT was doubled every three passages. The selection pressure was increased from an initial AZT concentration of 0.5 μM to a final concentration of 32 μM for wild-type HIVLAI, and from 25 μM to 150 μM for the AZT^R HIVLAI. The concentration of drug required to inhibit viral replication by 50% (IC50) was calculated every five passages to identify changes in AZT susceptibility, and fold-resistance was determined by dividing the IC50 of the mutant virus by the IC50 of wild-type HIV-1LAI. The genotype of the passaged virus was determined as described above.\n(§2) Drug susceptibility assays. NRTI susceptibility was determined in P4/R5 cells as described previously (Parikh, U. M., et al. 2005. Antimicrob. Agents Chemother. 49:1139-44). Briefly, threefold dilutions of inhibitor were added to P4/R5 cells in triplicate and cells were infected with an amount of virus that produced 100 relative units of light (RLU) in no drug, virus control wells. After 48 hours, the cells were lysed (Gal-Screen; Tropix/Applied Biosystems, Foster City, Calif.) and the RLU was measured using a ThermoLabSystems luminometer (Waltham, Mass.). The IC50 and fold-resistance were calculated as described above. IC50 values from at least three independent experiments were log10 transformed and compared for statistically significant differences using the two-sample Student's t test.\n(§3) Selection of AZT-resistant virus. Two independent AZT selection experiments were conducted. One starting with wild-type HIV-1LAI and the second starting with AZT HIV-1LAI (encoding M41L/L210W/T215Y). Both viruses were serially passaged in MT-2 cells in increasing concentrations of AZT. After every 5 passages, AZT susceptibility was measured in a single-cycle viral replication assay in P4/R5 cells (described in Materials and Methods). Viral RNA was extracted, converted to cDNA and the entire coding region of RT (residues 1-560) was PCR amplified and sequenced to monitor the appearance of mutations. In the selection experiment starting with HIV-1LAI, AZT susceptibility was reduced 66-fold by passage 35 and two polymerase domain TAMs were identified: D67N and K70R (Table 1)."}, "[2]": {"tested_on": "HIVLAI containing the M41L/L210W/T215Y mutations (AZT^R HIVLAI) passaged in increasing concentrations of AZT", "assay": "AZT susceptibility of virus passaged in increasing AZT, selection starting with AZT^R HIVLAI; single-cycle assay in P4/R5 cells", "format": "cell-based, HIV-1", "details": "for Fold-Resistance: compared to wild-type passaged without AZT", "procedure": "as §1, §2, §3"}, "[3]": {"tested_on": "HIV-1 RT mutants with A371V and/or Q509L, alone or in combination with TAMs", "assay": "Drug susceptibility of site-directed mutants, comparisons between mutants with and without A371V/Q509L", "format": "cell-based"}, "[4]": {"tested_on": "HIV-1 RT N3481 with \"classic\" TAMs", "details": "N3481 present with \"classic\" TAMs; cited from earlier work"}, "HIV-1 RT D549N": {"tested_on": "HIV-1 RT D549N", "details": "D549N mutation; cited from earlier work"}, "Wild-type HIVLAI": {"tested_on": "Wild-type HIVLAI", "assay": "Drug susceptibility assay in P4/R5 cells, recombinant virus", "format": "cell-based, HIV-1", "details": "Human immunodeficiency virus 1, P4/R5; Wild-type; mean ± SD, at least three experiments; read-out: IC50", "procedure": "as §2\nConstruction of mutant recombinant HIV-1. Mutant recombinant plasmid clones of virus were generated by oligonucleotide site-directed mutagenesis as described previously (Shi, C., and J. W. Mellors. 1997. A recombinant retroviral system for rapid […] analysis of human immunodeficiency virus type 1 susceptibility to reverse transcriptase inhibitors. Antimicrob. Agents Chemother. 41:2781-5), using the p6HRT-MO plasmid. p6HRT-MO contains the entire RT and protease coding sequence as previously described (Le Grice, S. F., and F. Gruninger-Leitch. 1990. Rapid purification of homodimer and heterodimer HIV-1 reverse transcriptase by metal chelate affinity chromatography. Eur. J. Biochem. 187:307-14) and four silent restriction sites (Xma I, Mlu I, Xba I, and NgoM IV from the 5′ to 3′ end of RT at codons 14, 358, 490 and 554, respectively). After site-directed mutagenesis (QIAamp kit, QIAGEN, Valencia, Calif.), the mutated RT was ligated into pxxHIV-1LAI MO that contains the entire genome of HIV-1LAI and the same silent restriction sites as p6HRT-MO. Infectious virus was generated by electroporating the mutated xxHIV-1LAI MO plasmid into MT-2 cells as described above. All mutations in recombinant viruses were confirmed by full-length sequencing of the entire RT coding region."}}, "note": "Read-outs that look alike come from different tables or passages of the source.", "data": [{"compound": "Cc1cn([C@H]2C[C@H](N=[N+]=[N-])[C@@H](CO)O2)c(=O)[nH]c1=O", "note": "[AZT, 3′-azido-3′-dideoxythymidine]", "values": [{"measurement": "IC50", "setting": "[1]; Human immunodeficiency virus 1, MT2, passage 1, AZT concentration 0.5 μM, read-out: IC50", "result": 0.2, "unit": "µM"}, {"measurement": "IC50", "setting": "[1]; Human immunodeficiency virus 1, MT2, passage 10, AZT concentration 0.5 μM, read-out: IC50", "result": 0.3, "unit": "µM"}, {"measurement": "IC50", "setting": "[1]; Human immunodeficiency virus 1, MT2, passage 20, AZT concentration 0.5 μM, read-out: IC50", "result": 0.7, "unit": "µM"}, {"measurement": "IC50", "setting": "[1]; Human immunodeficiency virus 1, MT2, passage 25, AZT concentration 1.0 μM, mutations: None, read-out: IC50", "result": 0.7, "unit": "µM"}, {"measurement": "IC50", "setting": "[1]; Human immunodeficiency virus 1, MT2, passage 30, AZT concentration 2.0 μM, D67D/N, K70K/R, read-out: IC50", "result": 3, "unit": "µM"}, {"measurement": "IC50", "setting": "[1]; Human immunodeficiency virus 1, MT2, passage 35, AZT concentration 2.0 μM, D67N, K70R, read-out: IC50", "result": 10, "unit": "µM"}, {"measurement": "IC50", "setting": "[1]; Human immunodeficiency virus 1, MT2, passage 40, AZT concentration 4.0 μM, D67N, K70R, A371A/V, Q509Q/L, read-out: IC50", "result": 10, "unit": "µM"}, {"measurement": "IC50", "setting": "[1]; Human immunodeficiency virus 1, MT2, passage 55, AZT concentration 16 μM, D67N, K70R, T215T/I, A371A/V, Q509Q/L, read-out: IC50", "result": 39, "unit": "µM"}, {"measurement": "IC50", "setting": "[1]; Human immunodeficiency virus 1, MT2, passage 60, AZT concentration 32 μM, D67N, K70R, T215I, A371A/V, Q509L, read-out: IC50", "result": 56, "unit": "µM"}, {"measurement": "IC50", "setting": "[1]; Human immunodeficiency virus 1, MT2, passage 65, AZT concentration 32 μM, D67N, K70R, T215I/F, A371A/V, Q509L", "result": "≥ 810", "unit": "µM"}, {"measurement": "Fold-Resistance", "setting": "[1]; passage 25, mutations: None", "result": 4.1, "unit": "fold"}, {"measurement": "Fold-Resistance", "setting": "[1]; passage 30, D67D/N, K70K/R", "result": 26, "unit": "fold"}, {"measurement": "Fold-Resistance", "setting": "[1]; passage 35, D67N, K70R", "result": 66, "unit": "fold"}, {"measurement": "Fold-Resistance", "setting": "[1]; passage 40, D67N, K70R, A371A/V, Q509Q/L", "result": 86, "unit": "fold"}, {"measurement": "Fold-Resistance", "setting": "[1]; passage 55, D67N, K70R, T215T/I, A371A/V, Q509Q/L", "result": 255, "unit": "fold"}, {"measurement": "Fold-Resistance", "setting": "[1]; passage 60, D67N, K70R, T215I, A371A/V, Q509L", "result": 489, "unit": "fold"}, {"measurement": "IC50", "setting": "[2]; Human immunodeficiency virus 1, P4/R5, passage 1, AZT concentration 25 μM", "result": 21, "unit": "µM"}, {"measurement": "IC50", "setting": "[2]; Human immunodeficiency virus 1, P4/R5, passage 10, AZT concentration 50 μM", "result": 34, "unit": "µM"}, {"measurement": "IC50", "setting": "[2]; Human immunodeficiency virus 1, P4/R5, passage 25, AZT concentration 100 μM, M41L, D67D/N, L210W, L214F, T215Y", "result": 126, "unit": "µM"}, {"measurement": "IC50", "setting": "[2]; Human immunodeficiency virus 1, P4/R5, passage 30, AZT concentration 150 μM, M41L, D67D/N, L210W, L214F, T215Y", "result": 181, "unit": "µM"}, {"measurement": "IC50", "setting": "[2]; Human immunodeficiency virus 1, P4/R5, passage 35, AZT concentration 150 μM, M41L, D67N, L210W, L214F, T215Y", "result": "> 810", "unit": "µM"}, {"measurement": "Fold-Resistance", "setting": "[2]; passage 25, M41L, D67D/N, L210W, L214F, T215Y", "result": 39, "unit": "fold"}, {"measurement": "Fold-Resistance", "setting": "[2]; passage 30, M41L, D67D/N, L210W, L214F, T215Y", "result": 62, "unit": "fold"}, {"measurement": "greater AZT resistance conferred by T215F than T215I", "setting": "[3]; T215F versus T215I", "result": "~25", "unit": "fold"}, {"measurement": "AZT resistance conferred by A371V and Q509L, alone or together", "setting": "[3]; in the absence of TAMs", "result": "did not confer AZT resistance"}, {"measurement": "reduction of AZT susceptibility", "setting": "[4]", "result": 35, "unit": "fold"}, {"measurement": "increase in resistance (reduced susceptibility)", "setting": "HIV-1 RT D549N", "result": 12, "unit": "fold"}, {"measurement": "IC50", "setting": "Wild-type HIVLAI", "result": "0.2 ± 0.1", "unit": "µM"}]}]}
